{"source": "patent US20090004683A1", "about": "“Indicator Agent for Noninflammatory Stress Response and Use Thereof” (priority 2004, published 2009)", "key": {"[1]": {"tested_on": "Primary culture human renal proximal tubular epithelial cells", "test": "IL-18 release from renal tubular epithelial cells with paraquat stimulation", "format": "cell-based", "conditions": "renal tubular epithelial cells, 100 nM paraquat 15 minutes; SOD 1-20 U/ml or water-soluble vitamin E 100 nM-10 mM/ml", "quoted_text": "Primary culture human renal proximal tubular epithelial cells (purchased from CAMBREX Company) were cultured in a basal medium for renal tubular cells: contents 10 μg/ml hEGF (recombinant human epithelial cell growth factor) 0.5 ml, 5 mg/ml insulin 0.5 ml, 0.5 mg/ml hydrocortisone 0.5 ml, FBS (fetal bovine serum) 2.5 ml, 0.5 mg/ml epinephrine 0.5 ml, 6.5 μg/ml triiodothyronine 0.5 ml, 10 mg/ml transferrin 0.5 ml, 50 mg/ml gentamycin, 50 μg/ml amphotericin-B 0.5 ml), in petri dishes for cell culture 6 cm in diameter at 1.0-2.0×10^6/dish. This was cultured in the aforementioned medium containing 100 nM of paraquat, which is an active oxygen generator, for 15 minutes, after which the medium was exchanged with the same but paraquat-free medium. After the cells were further cultured for 1 hour, the medium was collected, and the concentration of IL-18 protein in the medium was measured."}, "[2]": {"tested_on": "phosphorylated (Thr180/Tyr182) P38 MAP kinase", "test": "Phosphorylated P38MAP kinase in the adrenal of restraint stress mice (Western blotting)", "format": "in vivo, mouse", "conditions": "SOD-1 20 U i.p. 1 and 3 hours after start of restraint, FIG. 4A", "description": "(§1) Each mouse was kept in a restrainer for 1 hour, and Ac-YVAD-CHO (200 μM/50 μl PBS(−)), Z-FA-fmk (100 μM/50 μl PBS(−)) and SB-203580 (100 μg/50 μl PBS(−) per mouse) were administered intraperitoneally. 1 and 3 hours after the start of restraint, SOD-1 (20 U) and DPI (30 μg) were administered intraperitoneally to the mouse, and samples were analyzed by Western blotting.\nWestern blot analysis of IL-18 and phosphorylated P38MAP kinase in adrenal tissue was performed as described below. The adrenal tissue was homogenized in an immunoprecipitation (IP) buffer solution (50 mM Tris pH 7.4, 150 mM NaCl, 0.5% NP-40 and 0.5% sodium deoxycholate) containing a protease inhibitor mixture (manufactured by Roche Diagnostics) using a Polytron homogenizer. The homogenate obtained (100 μg protein) was pre-clarified using protein A/G agarose (Exalpha Biologicals, Inc.), incubated with the anti-mouse IL-18 monoclonal antibody or the anti-phosphorylated (Thr180/Tyr182) P38 MAP kinase antibody and protein A/G agarose (50 μl), and centrifuged (at 13000×g for 25 minutes, 4° C.). The precipitate was boiled, and the adrenal protein was recovered, electrophoresed in 10-20% SDS-polyacrylamide gradient gel, and electrically transferred to a Hybond ECL (manufactured by Amersham) nitrocellulose membrane. The aforementioned membrane was incubated with an antibody (IL-18, phosphorylated (Thr180/Tyr182) P38 MAP kinase, caspase-1 or caspase-11), and the reacted protein was detected using an ECL plus system (manufactured by Amersham biosciences). Procaspase-11 and activated P38 MAP kinase were quantified using a Science Lab 99 image analysis system (manufactured by Fujifilm)."}, "[3]": {"tested_on": "Primary culture human skin keratinocytes", "test": "IL-18 release from keratinocytes with UV-B ray irradiation", "format": "cell-based", "conditions": "100 mJ UV-B, SOD 1-20 U/ml or water-soluble vitamin E 100 nM-10 mM/ml", "description": "Primary culture human skin keratinocytes (keratinocytes: purchased from CAMBREX Company) were cultured in a basal medium for keratinocytes contained in petri dishes for cell culture 6 cm in diameter at 1.0-2.0×10^6/dish. This was irradiated with 100 mJ of ultraviolet B rays (UV-B rays), after which the cells were cultured for 1 hour, after which the medium was collected, and the concentration of IL-18 protein in the medium was measured. Also, after the UV-B ray treatment, the cells were cultured in a medium containing SOD (1, 2.5, 5, 10, 20 U/ml), which is an active oxygen eliminator, or water-soluble vitamin E (100 nM, 1, 2.5, 5, 10 mM/ml), and the concentration of IL-18 protein in the medium was measured. In the keratinocytes, the activation and release of IL-18 by the active oxygen molecular species were observed. Furthermore, these were suppressed by SOD, which is an active oxygen eliminator, or by vitamin E, which neutralizes active oxygen, dose-dependently (FIGS. 7C and 7D)."}, "Abdominal macrophages": {"tested_on": "Abdominal macrophages", "test": "IL-18 release from macrophages with paraquat stimulation", "format": "cell-based, mouse", "conditions": "100 nM paraquat 15 minutes, SOD 1-20 U/ml", "description": "Abdominal macrophages isolated from mice by the method of Hamilton et al. (Hamilton T A, Weiel J E, Adams D O., J. Immunol. 1984 May; 132(5):2285-90) were cultured in Dulbecco's minimum essential medium at 1.0-2.0×10^5/dish. The medium was exchanged with the aforementioned medium containing 100 nM of paraquat, which is an active oxygen generator, and the cells were cultured for 15 minutes, after which the medium was exchanged with a paraquat-free medium, and the cells were further cultured for 3 hours, after which the medium was collected, and the concentration of IL-18 protein in the medium was measured."}, "[4]": {"tested_on": "Primary culture human skin keratinocytes", "test": "IL-18 release from keratinocytes with paraquat stimulation", "format": "cell-based", "conditions": "keratinocytes, 1 μM paraquat 15 minutes; SOD 1-20 U/ml or water-soluble vitamin E 100 nM-10 mM/ml", "description": "Primary culture human skin keratinocytes (keratinocytes) were cultured in a basal medium for keratinocytes contained in petri dishes for cell culture 6 cm in diameter at 1.0-2.0×10^6/dish. This was cultured in the aforementioned medium containing 1 μM of paraquat, which is an active oxygen generator, for 15 minutes, after which the medium was exchanged with a paraquat-free medium, and the cells were further cultured for 1 hour, after which the medium was collected, and the concentration of IL-18 protein in the medium was measured."}, "Synovial membrane tissue": {"tested_on": "Synovial membrane tissue", "test": "IL-18 release from synovial membrane tissue with paraquat stimulation", "format": "cell-based, human", "conditions": "synovial membrane tissue of articular rheumatism patient, 100 nM paraquat 15 minutes; SOD 1-20 U/ml", "description": "Synovial membrane tissue collected from the articular synovial membrane at a lesion site of an articular rheumatism patient was subjected to tissue culture in an RPMI-1640 medium containing 10% fetal bovine serum by the method of Tanaka et al. (Tanaka M, Harigai M, Kawaguchi Y, Ohta S, Sugiura T, Takagi K, Ohsako-Higami S, Fukasawa C, Hara M, Kamatani N., J. Rheumatol. 2001 August; 28(8):1779-87). The medium was exchanged with the aforementioned medium containing 100 nM of paraquat, which is an active oxygen generator, and the cells were cultured for 15 minutes, after which the medium was exchanged with a paraquat-free medium, and the cells were further cultured for 1 hour, after which the medium was collected, and the concentration of IL-18 protein in the medium was measured."}, "procaspase-11": {"tested_on": "procaspase-11", "test": "Procaspase-11 protein in the adrenal of restraint stress mice (Western blotting)", "format": "in vivo, mouse", "conditions": "given i.p. during restraint", "description": "as §1\nWestern blot analysis of IL-18 and phosphorylated P38MAP kinase in adrenal tissue was performed as described below. The adrenal tissue was homogenized in an immunoprecipitation (IP) buffer solution (50 mM Tris pH 7.4, 150 mM NaCl, 0.5% NP-40 and 0.5% sodium deoxycholate) containing a protease inhibitor mixture (manufactured by Roche Diagnostics) using a Polytron homogenizer. […] The aforementioned membrane was incubated with an antibody (IL-18, phosphorylated (Thr180/Tyr182) P38 MAP kinase, caspase-1 or caspase-11), and the reacted protein was detected using an ECL plus system (manufactured by Amersham biosciences). Procaspase-11 and activated P38 MAP kinase were quantified using a Science Lab 99 image analysis system (manufactured by Fujifilm)."}}}
{"substance": "SOD: superoxide dismutase (SOD)-1 purchased from Sigma; active oxygen eliminator", "values": [{"measurement": "activation and release of IL-18 into the medium", "setting": "[1]", "value": "suppressed"}, {"measurement": "inhibition of the phosphorylation of P38MAP kinase in the adrenal", "setting": "[2]", "value": "about 70%"}, {"measurement": "activation and release of IL-18 into the medium", "setting": "[3]", "value": "suppressed"}, {"measurement": "activation and release of IL-18 into the medium", "setting": "Abdominal macrophages", "value": "suppressed"}, {"measurement": "activation and release of IL-18 into the medium", "setting": "[4]", "value": "suppressed"}, {"measurement": "activation and release of IL-18 into the medium", "setting": "Synovial membrane tissue", "value": "suppressed"}, {"measurement": "stress-induced increase in procaspase-11 protein", "setting": "procaspase-11", "value": "reduced"}]}
